Assay results from US20240368156A1, “2-AZABICYCLO[2.2.1]HEPTANE KRAS INHIBITORS” (INCYTE CORPORATION, priority 2023, published 2024).

Key:
KRAS G12D = KRAS G12D (Homo sapiens, UniProt P01116, G12D); assay: GDP-GTP exchange assay (bodipy-GDP/GppNHp, SOS1), KRAS G12D; type: biochemical; conditions: 2.5 nM bodipy-loaded KRAS G12D, 4 h pre-incubation, 2 h reaction with GppNHp and SOS1; for certain compounds the most potent isomer is quoted; read-out: KRAS_G12D exchange assay IC50
Method: (§1) The inhibitor potency of the exemplified compounds was determined in a fluorescence based guanine nucleotide exchange assay, which measures the exchange of bodipy-GDP (fluorescently labeled GDP) for GppNHp (Non-hydrolyzable GTP analog) to generate the active state of KRAS in the presence of SOS1 (guanine nucleotide exchange factor). Inhibitors were serially diluted in DMSO and a volume of 0.1 μL was transferred to the wells of a black low volume 384-well plate. 5 µL/well volume of bodipy-loaded KRAS G12D diluted to 2.5 nM in assay buffer (25 mM Hepes pH 7.5, 50 mM NaCl, 10 mM MgCl2 and 0.01% Brij-35) was added to the plate and pre-incubated with inhibitor for 4 h at r.t. Appropriate controls (enzyme with no inhibitor or with a G12D inhibitor) were included on the plate. The exchange was initiated by the addition of a 5 μL/well volume containing 1 mM GppNHp and 300 nM SOS1 in assay buffer. The 10 μL/well reaction concentration of the bodipy-loaded KRAS G12D, GppNHp, and SOS1 were 2.5 nM, 500 μM, and 150 nM, respectively. The reaction plates were incubated at r.t. for 2 h, a time estimated for complete GDP-GTP exchange in the absence of inhibitor. For the KRAS G12V mutant, similar guanine nucleotide exchange assays were used with 2.5 nM as final concentration for the bodipy loaded KRAS proteins and 3 h incubation after adding GppNHp-SOS1 mixture. A cyclic peptide described to selectively bind G12D mutant (Sakamoto et al., BBRC 484.3 (2017), 605-611) or internal compounds with confirmed binding were used as positive controls in the assay plates. Fluorescence intensities were measured on a PheraStar plate reader instrument (BMG Labtech) with excitation at 485 nm and emission at 520 nm.
(§2) Either GraphPad prism or Genedata Screener SmartFit was used to analyze the data. The IC50 values were derived by fitting the data to a four parameter logistic equation producing a sigmoidal dose-response curve with a variable Hill coefficient.
(§3) The symbol “†” indicates IC50≤100 nM, “††” indicates IC50>100 nM but ≤1 μM; and “†††” indicates IC50 is >1 μM but ≤5 μM, “††††” indicates IC50 is >5 µM but ≤10 μM. “NA” indicates IC50 not available.

KRAS G12V = KRAS G12V (Homo sapiens, UniProt P01116, G12V); assay: GDP-GTP exchange assay (bodipy-GDP/GppNHp, SOS1), KRAS G12V; type: biochemical; conditions: 2.5 nM bodipy-loaded KRAS G12V, 3 h incubation after adding GppNHp-SOS1; for certain compounds the most potent isomer is quoted; read-out: KRAS_G12V exchange assay IC50
Method: as §1, §2, §3

KRAS G12V, sequence (P01116 1-188 isoform P01116-2 G12V): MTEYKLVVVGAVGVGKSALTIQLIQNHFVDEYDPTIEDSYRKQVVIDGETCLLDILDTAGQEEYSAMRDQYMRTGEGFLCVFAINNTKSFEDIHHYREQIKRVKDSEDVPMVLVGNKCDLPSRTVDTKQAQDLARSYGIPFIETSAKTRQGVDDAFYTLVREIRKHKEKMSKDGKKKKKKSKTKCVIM
KRAS G12D, sequence (P01116 1-188 isoform P01116-2 G12D): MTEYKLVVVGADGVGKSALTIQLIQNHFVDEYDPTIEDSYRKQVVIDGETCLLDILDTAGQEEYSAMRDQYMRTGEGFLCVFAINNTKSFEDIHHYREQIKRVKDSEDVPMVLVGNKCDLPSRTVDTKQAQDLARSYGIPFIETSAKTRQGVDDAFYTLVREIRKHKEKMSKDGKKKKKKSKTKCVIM

SMILES | IC50 (KRAS G12D) [nM] | IC50 (KRAS G12V) [nM]
Cc1nc2c(F)c(-c3cccc(Cl)c3Cl)c(CCC#N)cc2c2c1cc([C@H]1[C@H]3C[C@H](C[C@@H]3C(F)F)N1C(=O)C1CC1)n2[C@H]1[C@H]2CN[C@@H]1C2 (atropisomer, axis not shown; (Ra)) [Example 9, 3-((Ra)-1-((1R,4R,5S)-2-Azabicyclo[2.1.1]hexan-5-yl)-2-((1R,3R,4S,5S)-2-(cyclopropanecarbonyl)-5-(difluoromethyl)-2-azabicyclo[2.2.1]heptan-3-yl)-7-(2,3-dichlorophenyl)-6-fluoro-4-methyl-1H-pyrrolo[3,2-c]quinolin-8-yl)propanenitrile] | ≤ 100 | ≤ 100
CC(C)(O)c1ccc(-c2nc3c(F)c(-c4cccc(Cl)c4Cl)c(CCC#N)cc3c3c2cc([C@H]2[C@@H]4CC[C@@H](C4)N2C(=O)C2CC2)n3[C@H]2[C@H]3CN[C@@H]2C3)cn1 [Example 13, 3-(1-((1R,4R,5S)-2-azabicyclo[2.1.1]hexan-5-yl)-2-((1S,3R,4R)-2-(cyclopropanecarbonyl)-2-azabicyclo[2.2.1]heptan-3-yl)-7-(2,3-dichlorophenyl)-6-fluoro-4-(6-(2-hydroxypropan-2-yl)pyridin-3-yl)-1H-pyrrolo[3,2-c]quinolin-8-yl)propanenitrile] | ≤ 100 | ≤ 100
CN(C)C(=O)c1ccc(-c2nc3c(F)c(-c4cccc(Cl)c4Cl)c(CCC#N)cc3c3c2cc([C@H]2[C@@H]4CC[C@@H](C4)N2C(=O)C2CC2)n3[C@H]2[C@H]3CN[C@@H]2C3)cn1 [Example 12, 5-(1-((1R,4R,5S)-2-azabicyclo[2.1.1]hexan-5-yl)-8-(2-cyanoethyl)-2-((1S,3R,4R)-2-(cyclopropanecarbonyl)-2-azabicyclo[2.2.1]heptan-3-yl)-7-(2,3-dichlorophenyl)-6-fluoro-1H-pyrrolo[3,2-c]quinolin-4-yl)-N,N-dimethylpicolinamide] | ≤ 100 | ≤ 100
Cc1nc2c(F)c(-c3cccc(Cl)c3Cl)c(CCC#N)cc2c2c1cc([C@H]1[C@H]3C[C@H](C[C@@H]3OC(F)F)N1C(=O)C1CC1)n2[C@H]1[C@H]2CN[C@@H]1C2 (atropisomer, axis not shown; (Ra)) [Example 7, 3-((Ra)-1-((1R,4R,5S)-2-Azabicyclo[2.1.1]hexan-5-yl)-2-((1R,3R,4R,5S)-2-(cyclopropanecarbonyl)-5-(difluoromethoxy)-2-azabicyclo[2.2.1]heptan-3-yl)-7-(2,3-dichlorophenyl)-6-fluoro-4-methyl-1H-pyrrolo[3,2-c]quinolin-8-yl)propanenitrile] | ≤ 100 | ≤ 100
Cc1nc2c(F)c(-c3cccc(Cl)c3Cl)c(CCC#N)cc2c2c1cc([C@H]1[C@H]3C[C@H](C[C@@H]3F)N1C(=O)C1CC1)n2[C@H]1[C@H]2CN[C@@H]1C2 (atropisomer, axis not shown; (Ra)) [Example 2, 3-((Ra)-1-((1R,4R,5S)-2-Azabicyclo[2.1.1]hexan-5-yl)-2-((1R,3R,4R,5S)-2-(cyclopropanecarbonyl)-5-fluoro-2-azabicyclo[2.2.1]heptan-3-yl)-7-(2,3-dichlorophenyl)-6-fluoro-4-methyl-1H-pyrrolo[3,2-c]quinolin-8-yl)propanenitrile] | ≤ 100 | ≤ 100
Cc1nc2c(F)c(-c3cccc(Cl)c3Cl)c(CCC#N)cc2c2c1cc([C@H]1[C@H]3C[C@H](C[C@@H]3F)N1C(=O)C1CC1)n2C1[C@H]2CN[C@@H]1C2 (stereo partly drawn) [Example 20, 3-(1-((1R,4R)-2-azabicyclo[2.1.1]hexan-5-yl)-2-((1R,3R,4R,5S)-2-(cyclopropanecarbonyl)-5-fluoro-2-azabicyclo[2.2.1]heptan-3-yl)-7-(2,3-dichlorophenyl)-6-fluoro-4-methyl-1H-pyrrolo[3,2-c]quinolin-8-yl)propanenitrile] | ≤ 100 | ≤ 100
C[C@@H](O)c1nc2c(F)c(-c3cccc(Cl)c3Cl)c(CCC#N)cc2c2c1cc([C@H]1[C@H]3C[C@H](C[C@@H]3F)N1C(=O)C1(F)CC1)n2[C@H]1[C@H]2CN[C@@H]1C2 (atropisomer, axis not shown) [Example 32, 3-((R)-1-((1R,4R,5S)-2-azabicyclo[2.1.1]hexan-5-yl)-7-(2,3-dichlorophenyl)-6-fluoro-2-((1R,3R,4R,5S)-5-fluoro-2-(1-fluorocyclopropane-1-carbonyl)-2-azabicyclo[2.2.1]heptan-3-yl)-4-((R)-1-hydroxyethyl)-1H-pyrrolo[3,2-c]quinolin-8-yl)propanenitrile] | ≤ 100 | ≤ 100
[2H]C([2H])([2H])O[C@H]1C[C@H]2C[C@@H]1[C@H](c1cc3c(C)nc4c(F)c(-c5cccc(Cl)c5Cl)c(CCC#N)cc4c3n1C1[C@H]3CN[C@@H]1C3)N2C(=O)C1CC1 (stereo partly drawn) [Example 23, 3-(1-((1R,4R)-2-azabicyclo[2.1.1]hexan-5-yl)-2-((1R,3R,4R,5S)-2-(cyclopropanecarbonyl)-5-(methoxy-d3)-2-azabicyclo[2.2.1]heptan-3-yl)-7-(2,3-dichlorophenyl)-6-fluoro-4-methyl-1H-pyrrolo[3,2-c]quinolin-8-yl)propanenitrile] | ≤ 100 | ≤ 100
[2H]C([2H])([2H])O[C@H]1C[C@H]2C[C@@H]1[C@H](c1cc3c(C)nc4c(F)c(-c5cccc(Cl)c5Cl)c(CCC#N)cc4c3n1[C@H]1[C@H]3CN[C@@H]1C3)N2C(=O)C1CC1 (atropisomer, axis not shown; (Ra)) [Example 4, 3-((Ra)-1-((1R,4R,5S)-2-Azabicyclo[2.1.1]hexan-5-yl)-2-((1R,3R,4R,5S)-2-(cyclopropanecarbonyl)-5-(methoxy-d3)-2-azabicyclo[2.2.1]heptan-3-yl)-7-(2,3-dichlorophenyl)-6-fluoro-4-methyl-1H-pyrrolo[3,2-c]quinolin-8-yl)propanenitrile] | ≤ 100 | ≤ 100

More lines, now with the values ahead:

IC50 (KRAS G12D) [nM] | IC50 (KRAS G12V) [nM] | SMILES
100 to 1000 | 100 to 1000 | Cc1nc2c(F)c(-c3cccc(Cl)c3Cl)c(CCC#N)cc2c2c1cc([C@H]1[C@H]3C[C@H](C[C@H]3O)N1C(=O)C1CC1)n2C1[C@H]2CN[C@@H]1C2 (stereo partly drawn) [Example 21, 3-(1-((1R,4R)-2-azabicyclo[2.1.1]hexan-5-yl)-2-((1R,3R,4R,5R)-2-(cyclopropanecarbonyl)-5-hydroxy-2-azabicyclo[2.2.1]heptan-3-yl)-7-(2,3-dichlorophenyl)-6-fluoro-4-methyl-1H-pyrrolo[3,2-c]quinolin-8-yl)propanenitrile]
≤ 100 | ≤ 100 | Cc1nc2c(F)c(-c3cccc(Cl)c3Cl)c(CCC#N)cc2c2c1cc([C@H]1[C@H]3C[C@H]([C@@H]4C[C@@H]43)N1C(=O)C1CC1)n2[C@H]1[C@H]2CN[C@@H]1C2 (atropisomer, axis not shown; (Ra)) [Example 3, 3-((Ra)-1-((1R,4R,5S)-2-Azabicyclo[2.1.1]hexan-5-yl)-2-((1S,2S,4R,5R,7R)-6-(cyclopropanecarbonyl)-6-azatricyclo[3.2.1.0^2,4]octan-7-yl)-7-(2,3-dichlorophenyl)-6-fluoro-4-methyl-1H-pyrrolo[3,2-c]quinolin-8-yl)propanenitrile]
≤ 100 | ≤ 100 | CO[C@H]1C[C@H]2C[C@@H]1[C@H](c1cc3c(C)nc4c(F)c(-c5cccc(Cl)c5Cl)c(CCC#N)cc4c3n1[C@H]1[C@H]3CN[C@@H]1C3)N2C(=O)C1CC1 [Example 15, 3-(1-((1R,4R,5S)-2-azabicyclo[2.1.1]hexan-5-yl)-2-((1R,3R,4R,5S)-2-(cyclopropanecarbonyl)-5-methoxy-2-azabicyclo[2.2.1]heptan-3-yl)-7-(2,3-dichlorophenyl)-6-fluoro-4-methyl-1H-pyrrolo[3,2-c]quinolin-8-yl)propanenitrile]
≤ 100 | ≤ 100 | C[C@@H](O)c1nc2c(F)c(-c3cccc(Cl)c3Cl)c(CCC#N)cc2c2c1cc([C@H]1[C@H]3C[C@H](C[C@@H]3OC(F)F)N1C(=O)C1(F)CC1)n2[C@H]1[C@H]2CN[C@@H]1C2 (single isomer, unassigned) [Example 37]
